# Results reported in US20230073777A1, “CYCLIC-AMP RESPONSE ELEMENT BINDING PROTEIN (CBP) AND/OR ADENOVIRAL E1A BINDING PROTEIN OF 300 KDA (P300) DEGRADATION COMPOUNDS AND METHODS OF USE” (CULLGEN (SHANGHAI), INC., priority 2019, published 2023).
# Where two headings read alike, the source gives them in different places.
# Experiments:
# [1] = test system: LNCaP cells; assay: LNCaP cell viability assay (CellTiter-Glo); type: cell-based; settings: Homo sapiens, 72 h; LNCaP prostate cancer cell viability inhibition, 3 days, CellTiter-Glo (Table 3)
# In short: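 Three-day treatment of LNCaP cells (5000 per well) across a 12-point, 3-fold dilution series starting at 10 μM. ATP luminescence (CellTiter-Glo) relative to untreated controls gave dose-response curves fitted nonlinearly for IC50.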
# [2] = target: P300 (Homo sapiens, UniProt Q09472); assay: Immunoblotting of P300 protein levels in LNCaP or 22RV1 cells; type: cell-based; parameters: LNCaP or 22RV1 cells that express CBP/P300 proteins were treated with GNE-781 or the bivalent compounds; endogenous in cells; host or cells: LNCaP (clone FGC) or 22RV1 cells; settings: read-out: Degradation (10 nM)
# Sequence of P300 (Q09472 whole entry): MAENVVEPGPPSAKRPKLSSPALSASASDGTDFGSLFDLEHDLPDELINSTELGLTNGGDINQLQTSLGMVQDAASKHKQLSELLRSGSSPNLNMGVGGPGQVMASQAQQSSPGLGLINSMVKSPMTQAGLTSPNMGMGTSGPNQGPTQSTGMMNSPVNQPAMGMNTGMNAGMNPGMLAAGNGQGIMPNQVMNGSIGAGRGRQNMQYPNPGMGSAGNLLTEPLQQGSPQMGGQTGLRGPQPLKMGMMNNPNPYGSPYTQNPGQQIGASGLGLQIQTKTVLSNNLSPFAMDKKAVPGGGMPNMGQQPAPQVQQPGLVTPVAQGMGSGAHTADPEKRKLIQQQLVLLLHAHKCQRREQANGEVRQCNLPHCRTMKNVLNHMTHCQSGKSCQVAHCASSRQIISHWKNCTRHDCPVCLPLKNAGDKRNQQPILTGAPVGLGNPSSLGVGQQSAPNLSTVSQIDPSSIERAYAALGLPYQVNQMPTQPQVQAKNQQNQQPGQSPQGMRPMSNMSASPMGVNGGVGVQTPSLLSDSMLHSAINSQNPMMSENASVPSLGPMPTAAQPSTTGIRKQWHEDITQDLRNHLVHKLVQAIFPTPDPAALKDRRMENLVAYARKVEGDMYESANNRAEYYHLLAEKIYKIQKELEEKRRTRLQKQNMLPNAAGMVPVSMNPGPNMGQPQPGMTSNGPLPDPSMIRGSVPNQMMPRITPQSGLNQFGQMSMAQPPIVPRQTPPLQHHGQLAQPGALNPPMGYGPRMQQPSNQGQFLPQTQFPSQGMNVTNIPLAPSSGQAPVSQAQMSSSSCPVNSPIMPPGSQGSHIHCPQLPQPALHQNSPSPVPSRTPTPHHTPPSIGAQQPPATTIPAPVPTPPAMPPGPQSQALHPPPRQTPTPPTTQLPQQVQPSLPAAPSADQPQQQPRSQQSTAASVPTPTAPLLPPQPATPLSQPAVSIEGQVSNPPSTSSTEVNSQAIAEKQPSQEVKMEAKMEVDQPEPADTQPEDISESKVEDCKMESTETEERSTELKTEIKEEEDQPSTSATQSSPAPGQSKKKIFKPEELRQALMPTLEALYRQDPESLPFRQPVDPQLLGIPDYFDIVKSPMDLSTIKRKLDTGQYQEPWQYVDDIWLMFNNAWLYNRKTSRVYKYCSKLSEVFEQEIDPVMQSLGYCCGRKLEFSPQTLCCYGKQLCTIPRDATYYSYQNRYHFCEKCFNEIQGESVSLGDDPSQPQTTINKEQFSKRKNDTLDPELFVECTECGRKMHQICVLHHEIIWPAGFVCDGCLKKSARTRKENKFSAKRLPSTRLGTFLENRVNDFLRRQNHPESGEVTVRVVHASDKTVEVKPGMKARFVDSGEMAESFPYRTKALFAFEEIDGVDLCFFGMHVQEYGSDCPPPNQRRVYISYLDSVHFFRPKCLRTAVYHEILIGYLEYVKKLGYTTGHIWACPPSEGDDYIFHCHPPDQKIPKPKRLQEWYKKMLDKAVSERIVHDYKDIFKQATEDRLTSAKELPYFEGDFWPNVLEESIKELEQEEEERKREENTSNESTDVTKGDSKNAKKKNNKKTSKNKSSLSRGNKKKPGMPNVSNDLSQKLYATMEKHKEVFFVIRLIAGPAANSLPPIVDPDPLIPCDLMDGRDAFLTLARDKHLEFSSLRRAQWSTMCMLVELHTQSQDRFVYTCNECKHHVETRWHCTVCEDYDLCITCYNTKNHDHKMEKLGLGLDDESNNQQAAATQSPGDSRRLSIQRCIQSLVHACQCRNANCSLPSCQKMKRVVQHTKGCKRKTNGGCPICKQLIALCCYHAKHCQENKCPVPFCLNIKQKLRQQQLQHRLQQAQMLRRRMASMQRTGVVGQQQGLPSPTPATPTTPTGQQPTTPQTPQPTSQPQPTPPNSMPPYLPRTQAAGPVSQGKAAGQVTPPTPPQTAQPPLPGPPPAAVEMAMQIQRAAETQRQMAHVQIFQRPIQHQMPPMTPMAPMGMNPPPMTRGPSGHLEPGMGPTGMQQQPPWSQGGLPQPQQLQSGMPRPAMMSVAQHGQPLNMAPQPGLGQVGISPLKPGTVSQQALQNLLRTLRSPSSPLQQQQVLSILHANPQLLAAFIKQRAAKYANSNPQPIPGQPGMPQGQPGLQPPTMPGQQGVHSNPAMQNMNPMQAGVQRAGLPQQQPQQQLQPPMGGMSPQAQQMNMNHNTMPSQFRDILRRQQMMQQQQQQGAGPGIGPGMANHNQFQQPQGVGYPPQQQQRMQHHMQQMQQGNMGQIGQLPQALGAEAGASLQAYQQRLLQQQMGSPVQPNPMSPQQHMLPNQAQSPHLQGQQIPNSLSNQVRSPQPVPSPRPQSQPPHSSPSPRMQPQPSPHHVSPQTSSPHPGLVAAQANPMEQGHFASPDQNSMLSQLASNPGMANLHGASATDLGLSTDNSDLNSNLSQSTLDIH
# In short: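 P300/CBP levels quantified by chemiluminescent immunoblot band densitometry, normalized against tubulin or vinculin loading controls. Lysates came from LNCaP or 22RV1 cells exposed to compounds or DMSO vehicle for indicated times.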
# [3] = percentage of inhibition of p300 at 10 nM (Table 3)
Compound,IC50 [1],"inhibition at 0.01 µM [2, 3]",inhibition at 0.01 µM [2]
"CNC(=O)N1CCc2c(c(N3CCCc4cc(-c5cnn(C)c5)c(C(F)F)cc43)nn2C2CCN(C(=O)CCCCCCc3cccc4c3CN(C3CCC(=O)NC3=O)C4=O)CC2)C1 (centres unmarked) [P-086, 3-(7-(Difluoromethyl)-6-(1-methyl-1H-pyrazol-4-yl)-3,4-dihydroquinolin-1(2H)-yl)-1-(1-(7-(2-(2,6-dioxopiperidin-3-yl)-1-oxoisoindolin-4-yl)heptanoyl)piperidin-4-yl)-N-methyl-1,4,6,7-tetrahydro-5H-pyrazolo[4,3-c]pyridine-5-carboxamide]",21.1 nM,50 to 80%,
"CNC(=O)N1CCc2c(c(N3CCCc4cc(-c5cnn(C)c5)c(C(F)F)cc43)nn2C2CCN(C(=O)CCCCCCc3cccc4c3C(=O)N(C3CCC(=O)NC3=O)C4)CC2)C1 (centres unmarked) [P-087, 3-(7-(Difluoromethyl)-6-(1-methyl-1H-pyrazol-4-yl)-3,4-dihydroquinolin-1(2H)-yl)-1-(1-(7-(2-(2,6-dioxopiperidin-3-yl)-3-oxoisoindolin-4-yl)heptanoyl)piperidin-4-yl)-N-methyl-1,4,6,7-tetrahydro-5H-pyrazolo[4,3-c]pyridine-5-carboxamide]",12.6 nM,20 to 50%,
"CNC(=O)N1CCc2c(c(N3CCCc4cc(-c5cnn(C)c5)c(C(F)F)cc43)nn2C2CCN(C(=O)CCCCCOc3cccc4c3CN(C3CCC(=O)NC3=O)C4=O)CC2)C1 (centres unmarked) [P-088, 3-(7-(difluoromethyl)-6-(1-methyl-1H-pyrazol-4-yl)-3,4-dihydroquinolin-1(2H)-yl)-1-(1-(6-((2-(2,6-dioxopiperidin-3-yl)-1-oxoisoindolin-4-yl)oxy)hexanoyl)piperidin-4-yl)-N-methyl-1,4,6,7-tetrahydro-5H-pyrazolo[4,3-c]pyridine-5-carboxamide]",5.5 nM,> 80%,
"CNC(=O)N1CCc2c(c(N3CCCc4cc(-c5cnn(C)c5)c(C(F)F)cc43)nn2C2CCN(C(=O)CCCCCOc3cccc4c3C(=O)N(C3CCC(=O)NC3=O)C4)CC2)C1 (centres unmarked) [P-089, 3-(7-(Difluoromethyl)-6-(1-methyl-1H-pyrazol-4-yl)-3,4-dihydroquinolin-1(2H)-yl)-1-(1-(6-((2-(2,6-dioxopiperidin-3-yl)-3-oxoisoindolin-4-yl)oxy)hexanoyl)piperidin-4-yl)-N-methyl-1,4,6,7-tetrahydro-5H-pyrazolo[4,3-c]pyridine-5-carboxamide]",78.5 nM,< 20%,
"CNC(=O)N1CCc2c(c(N3CCCc4cc(-c5cnn(C)c5)c(C(F)F)cc43)nn2C2CCN(CCCCCCNc3cccc4c3C(=O)N(C3CCC(=O)NC3=O)C4=O)CC2)C1 (centres unmarked) [P-090, 3-(7-(difluoromethyl)-6-(1-methyl-1H-pyrazol-4-yl)-3,4-dihydroquinolin-1(2H)-yl)-1-(1-(6-((2-(2,6-dioxopiperidin-3-yl)-1,3-dioxoisoindolin-4-yl)amino)hexyl)piperidin-4-yl)-N-methyl-1,4,6,7-tetrahydro-5H-pyrazolo[4,3-c]pyridine-5-carboxamide]",1 nM,> 80%,
"CNC(=O)N1CCc2c(c(N3CCCc4cc(-c5cnn(C)c5)c(C(F)F)cc43)nn2C2CCN(CCCCCCOc3cccc4c3C(=O)N(C3CCC(=O)NC3=O)C4=O)CC2)C1 (centres unmarked) [P-091, 3-(7-(difluoromethyl)-6-(1-methyl-1H-pyrazol-4-yl)-3,4-dihydroquinolin-1(2H)-yl)-1-(1-(6-((2-(2,6-dioxopiperidin-3-yl)-1,3-dioxoisoindolin-4-yl)oxy)hexyl)piperidin-4-yl)-N-methyl-1,4,6,7-tetrahydro-5H-pyrazolo[4,3-c]pyridine-5-carboxamide]",2.1 nM,> 80%,
"CNC(=O)N1CCc2c(c(N3CCCc4cc(-c5cnn(C)c5)c(C(F)F)cc43)nn2C2CCN(C(=O)CCCCC#Cc3cccc4c3C(=O)N(C3CCC(=O)NC3=O)C4=O)CC2)C1 (centres unmarked) [P-092, 3-(7-(Difluoromethyl)-6-(1-methyl-1H-pyrazol-4-yl)-3,4-dihydroquinolin-1(2H)-yl)-1-(1-(7-(2-(2,6-dioxopiperidin-3-yl)-1,3-dioxoisoindolin-4-yl)hept-6-ynoyl)piperidin-4-yl)-N-methyl-1,4,6,7-tetrahydro-5H-pyrazolo[4,3-c]pyridine-5-carboxamide]",56.5 nM,20 to 50%,
"CNC(=O)N1CCc2c(c(N3CCCc4cc(-c5cnn(C)c5)c(C(F)F)cc43)nn2C2CCN(C(=O)CCCCC#Cc3cccc4c3CN(C3CCC(=O)NC3=O)C4=O)CC2)C1 (centres unmarked) [P-093, 3-(7-(difluoromethyl)-6-(1-methyl-1H-pyrazol-4-yl)-3,4-dihydroquinolin-1(2H)-yl)-1-(1-(7-(2-(2,6-dioxopiperidin-3-yl)-1-oxoisoindolin-4-yl)hept-6-ynoyl)piperidin-4-yl)-N-methyl-1,4,6,7-tetrahydro-5H-pyrazolo[4,3-c]pyridine-5-carboxamide]",25.2 nM,> 80%,
"CNC(=O)N1CCc2c(c(N3CCCc4cc(-c5cnn(C)c5)c(C(F)F)cc43)nn2C2CCN(C(=O)CCCCCNc3cccc4c3CN(C3CCC(=O)NC3=O)C4=O)CC2)C1 (centres unmarked) [P-095, 3-(7-(Difluoromethyl)-6-(1-methyl-1H-pyrazol-4-yl)-3,4-dihydroquinolin-1(2H)-yl)-1-(1-(6-((2-(2,6-dioxopiperidin-3-yl)-1-oxoisoindolin-4-yl)amino)hexanoyl)piperidin-4-yl)-N-methyl-1,4,6,7-tetrahydro-5H-pyrazolo[4,3-c]pyridine-5-carboxamide]",67.7 nM,20 to 50%,
"CNC(=O)N1CCc2c(c(N3CCCc4cc(-c5cnn(C)c5)c(C(F)F)cc43)nn2C2CCN(C(=O)CCCCCNc3cccc4c3C(=O)N(C3CCC(=O)NC3=O)C4)CC2)C1 (centres unmarked) [P-096, 3-(7-(difluoromethyl)-6-(1-methyl-1H-pyrazol-4-yl)-3,4-dihydroquinolin-1(2H)-yl)-1-(1-(6-((2-(2,6-dioxopiperidin-3-yl)-3-oxoisoindolin-4-yl)amino)hexanoyl)piperidin-4-yl)-N-methyl-1,4,6,7-tetrahydro-5H-pyrazolo[4,3-c]pyridine-5-carboxamide]",26.6 nM,> 80%,
"CNC(=O)N1CCc2c(c(N3CCCc4cc(-c5cnn(C)c5)c(C(F)F)cc43)nn2C2CCN(CCCCCCCc3cccc4c3C(=O)N(C3CCC(=O)NC3=O)C4=O)CC2)C1 (centres unmarked) [P-097, 3-(7-(difluoromethyl)-6-(1-methyl-1H-pyrazol-4-yl)-3,4-dihydroquinolin-1(2H)-yl)-1-(1-(7-(2-(2,6-dioxopiperidin-3-yl)-1,3-dioxoisoindolin-4-yl)heptyl)piperidin-4-yl)-N-methyl-1,4,6,7-tetrahydro-5H-pyrazolo[4,3-c]pyridine-5-carboxamide]",49 nM,> 80%,
CNC(=O)N1CCc2c(c(N3CCCc4cc(-c5cnn(C)c5)c(C(F)F)cc43)nn2C2CCN(C(=O)CN3CCC(CNc4cccc5c4C(=O)N(C4CCC(=O)NC4=O)C5=O)CC3)CC2)C1 (centres unmarked) [P-102],14.9 nM,50 to 80%,
"CNC(=O)N1CCc2c(c(N3CCCc4cc(-c5cnn(C)c5)c(C(F)F)cc43)nn2C2CCN(C(=O)CN3CCC(CCc4cccc5c4C(=O)N(C4CCC(=O)NC4=O)C5=O)CC3)CC2)C1 (centres unmarked) [P-104, 3-(7-(difluoromethyl)-6-(1-methyl-1H-pyrazol-4-yl)-3,4-dihydroquinolin-1(2H)-yl)-1-(1-(2-(4-(2-(2-(2,6-dioxopiperidin-3-yl)-1,3-dioxoisoindolin-4-yl)ethyl)piperidin-1-yl)acetyl)piperidin-4-yl)-N-methyl-1,4,6,7-tetrahydro-5H-pyrazolo[4,3-c]pyridine-5-carboxamide]",12.1 nM,> 80%,
"CNC(=O)N1CCc2c(c(N3CCCc4cc(-c5cnn(C)c5)c(C(F)F)cc43)nn2C2CCN(C(=O)CCCCCn3c(=O)n(C4CCC(=O)NC4=O)c4ccccc43)CC2)C1 (centres unmarked) [P-105, 3-(7-(Difluoromethyl)-6-(1-methyl-1H-pyrazol-4-yl)-3,4-dihydroquinolin-1(2H)-yl)-1-(1-(6-(3-(2,6-dioxopiperidin-3-yl)-2-oxo-2,3-dihydro-1H-benzo[d]imidazol-1-yl)hexanoyl)piperidin-4-yl)-N-methyl-1,4,6,7-tetrahydro-5H-pyrazolo[4,3-c]pyridine-5-carboxamide]",44.5 nM,50 to 80%,
"CNC(=O)N1CCc2c(c(N3CCCc4cc(-c5cnn(C)c5)c(C(F)F)cc43)nn2C2CCN(C(=O)CCCCCCn3c(=O)n(C4CCC(=O)NC4=O)c4ccccc43)CC2)C1 (centres unmarked) [P-106, 3-(7-(difluoromethyl)-6-(1-methyl-1H-pyrazol-4-yl)-3,4-dihydroquinolin-1(2H)-yl)-1-(1-(7-(3-(2,6-dioxopiperidin-3-yl)-2-oxo-2,3-dihydro-1H-benzo[d]imidazol-1-yl)heptanoyl)piperidin-4-yl)-N-methyl-1,4,6,7-tetrahydro-5H-pyrazolo[4,3-c]pyridine-5-carboxamide]",24.2 nM,,50 to 80%
"CC(=O)N1CCc2c(c(N3CCCc4cc(-c5cnn(C)c5)c(C(F)F)cc43)nn2C2CCN(C(=O)CCCCCn3c(=O)n(C4CCC(=O)NC4=O)c4ccccc43)CC2)C1 (centres unmarked) [P-107, 3-(3-(6-(4-(5-Acetyl-3-(7-(difluoromethyl)-6-(1-methyl-1H-pyrazol-4-yl)-3,4-dihydroquinolin-1(2H)-yl)-4,5,6,7-tetrahydro-1H-pyrazolo[4,3-c]pyridin-1-yl)piperidin-1-yl)-6-oxohexyl)-2-oxo-2,3-dihydro-1H-benzo[d]imidazol-1-yl)piperidine-2,6-dione]",20.4 nM,,50 to 80%
